Legend:
Type in all cases: in vivo
corn (Zea mays) = experiment: Test A postemergence, corn; details: Postemergence, 0 to 100 scale (0 no effect, 100 complete control)
Outline: (§1)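 After sowing into a sand-amended loam, pots for the preemergence test were treated by spraying directly onto soil. In parallel, seedlings at the one- to two-leaf stage and 2 to 10 cm tall were treated postemergence with the identical surfactant-containing formulation.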

kochia (Bassia scoparia) [1] = experiment: Test A preemergence, kochia; details: Preemergence; for Kochia plant response rating: visual injury on 0 to 100 scale (0 no effect, 100 complete control), approximately 10 days; for Plant response rating, Kochia: 0 to 100 scale (0 no effect, 100 complete control)
Outline: as §1

[2] = tested on: ragweed (common ragweed, Ambrosia artemisiifolia); experiment: Test A preemergence, ragweed; details: Preemergence; for Ragweed plant response rating: visual injury on 0 to 100 scale (0 no effect, 100 complete control), approximately 10 days; for Plant response rating, Ragweed: 0 to 100 scale (0 no effect, 100 complete control)
Outline: as §1

[3] = tested on: ragweed (common ragweed, Ambrosia artemisiifolia); experiment: Test A postemergence, ragweed; details: Postemergence, 0 to 100 scale (0 no effect, 100 complete control)
Outline: as §1

[4] = tested on: Ryegrass, Italian (Italian ryegrass, Lolium multiflorum); experiment: Test A preemergence, Ryegrass, Italian; details: Preemergence; for Ryegrass, Italian plant response rating: visual injury on 0 to 100 scale (0 no effect, 100 complete control), approximately 10 days; for Plant response rating, Ryegrass, Italian: 0 to 100 scale (0 no effect, 100 complete control)
Outline: as §1

[5] = tested on: pigweed (Amaranthus retroflexus); experiment: Test A postemergence, pigweed; details: Postemergence, 0 to 100 scale (0 no effect, 100 complete control)
Outline: as §1

[6] = tested on: wheat (Triticum aestivum); experiment: Test A postemergence, wheat; details: Postemergence, 0 to 100 scale (0 no effect, 100 complete control)
Outline: (§2)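 Greenhouse pot test in a loam–sand blend; compounds delivered in a non-phytotoxic solvent carrying a surfactant, applied either as a directed spray to soil at seeding or over seedlings 2 to 10 cm high with one to two leaves.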

[7] = tested on: blackgrass (Alopecurus myosuroides); experiment: Test A postemergence, blackgrass; details: Postemergence, 0 to 100 scale (0 no effect, 100 complete control)
Outline: as §1

kochia (Bassia scoparia) [8] = experiment: Test A postemergence, kochia; details: Postemergence, 0 to 100 scale (0 no effect, 100 complete control)
Outline: as §1

[9] = tested on: barnyardgrass (Echinochloa crus-galli); experiment: Test A postemergence, barnyardgrass; details: Postemergence, 0 to 100 scale (0 no effect, 100 complete control)
Outline: as §2

[10] = tested on: pigweed (Amaranthus retroflexus); experiment: Test A preemergence, pigweed; details: for Pigweed plant response rating: visual injury on 0 to 100 scale (0 no effect, 100 complete control), approximately 10 days; for Plant response rating, Pigweed: 0 to 100 scale (0 no effect, 100 complete control)
Outline: as §2

[11] = tested on: Foxtail, Giant (giant foxtail, Setaria faberi); experiment: Test A preemergence, Foxtail, Giant; details: Preemergence; for Foxtail, Giant plant response rating: visual injury on 0 to 100 scale (0 no effect, 100 complete control), approximately 10 days; for Plant response rating, Foxtail, Giant: 0 to 100 scale (0 no effect, 100 complete control)
Outline: as §1

[12] = tested on: Foxtail, Giant (giant foxtail, Setaria faberi); experiment: Test A postemergence, Foxtail, Giant; details: Postemergence, 0 to 100 scale (0 no effect, 100 complete control)
Outline: as §1

[13] = tested on: Ryegrass, Italian (Italian ryegrass, Lolium multiflorum); experiment: Test A postemergence, Ryegrass, Italian; details: Postemergence, 0 to 100 scale (0 no effect, 100 complete control)
Outline: as §1

[14] = tested on: galium (catchweed bedstraw, Galium aparine); experiment: Test A postemergence, galium; details: Postemergence, 0 to 100 scale (0 no effect, 100 complete control)
Outline: as §2

[15] = tested on: barnyardgrass (Echinochloa crus-galli); experiment: Test A preemergence, barnyardgrass; details: Preemergence; for Barnyardgrass plant response rating: visual injury on 0 to 100 scale (0 no effect, 100 complete control), approximately 10 days; for Plant response rating, Barnyardgrass: 0 to 100 scale (0 no effect, 100 complete control)
Outline: as §1

[16] = 125 g ai/ha, visual injury approx. 10 days
[17] = 500 g ai/ha, visual injury, approx. 10 days
[18] = 500 g ai/ha, visual injury vs untreated controls after approx. 10 days
[19] = 500 g ai/ha, visual injury approx. 10 days
[20] = 125 g ai/ha, visual injury, approx. 10 days

SMILES: CCn1cc(-c2cc(N(S(=O)(=O)C(F)(F)F)S(=O)(=O)C(F)(F)F)c(C)cc2C)c(=O)n(C)c1=O [Compound 30]
- Plant response rating, Corn (corn (Zea mays); [16]): 0
- Plant response rating, Corn (corn (Zea mays); [17]): 40
- Kochia plant response rating (kochia (Bassia scoparia) [1]; 125 g ai/ha): 70
- Plant response rating, Kochia (kochia (Bassia scoparia) [1]; 500 g ai/ha): 90
- Ragweed plant response rating ([2]; 125 g ai/ha): 20
- Plant response rating, Ragweed ([2]; 500 g ai/ha): 40
- Plant response rating, Ragweed [3, 16]: 40
- Plant response rating, Ragweed [3, 17]: 40
- Ryegrass, Italian plant response rating ([4]; 125 g ai/ha): 90
- Plant response rating, Ryegrass, Italian ([4]; 500 g ai/ha): 90
- Plant response rating, Pigweed [5, 16]: 40
- Plant response rating, Pigweed [5, 17]: 60
- Plant response rating, Wheat [6, 16]: 60
- Plant response rating, Wheat [6, 17]: 70
- Plant response rating, Blackgrass [7, 16]: 60
- Plant response rating, Blackgrass [7, 17]: 80
- Plant response rating, Kochia (kochia (Bassia scoparia) [8]; [16]): 10
- Plant response rating, Kochia (kochia (Bassia scoparia) [8]; [17]): 50
- Plant response rating, Barnyardgrass [9, 16]: 90
- Plant response rating, Barnyardgrass [9, 17]: 90
- Pigweed plant response rating ([10]; 125 g ai/ha): 20
- Plant response rating, Pigweed ([10]; 500 g ai/ha): 60
- Foxtail, Giant plant response rating ([11]; 125 g ai/ha): 80
- Plant response rating, Foxtail, Giant ([11]; 500 g ai/ha): 100
- Plant response rating, Foxtail, Giant [12, 16]: 70
- Plant response rating, Foxtail, Giant [12, 17]: 90
- Plant response rating, Ryegrass, Italian [13, 16]: 40
- Plant response rating, Ryegrass, Italian [13, 17]: 70
- Plant response rating, Galium [14, 16]: 70
- Plant response rating, Galium [14, 17]: 90
- Barnyardgrass plant response rating ([15]; 125 g ai/ha): 90
- Plant response rating, Barnyardgrass ([15]; 500 g ai/ha): 90

SMILES: CCn1nccc(-c2cc(NS(=O)(=O)C(F)(F)F)c(C)cc2F)c1=O [Compound 55]
- Plant response rating, Corn (corn (Zea mays); [16]): 0
- Corn plant response rating (corn (Zea mays); [18]): 50
- Kochia plant response rating (kochia (Bassia scoparia) [1]; 125 g ai/ha): 80
- Plant response rating, Kochia (kochia (Bassia scoparia) [1]; 500 g ai/ha): 80
- Ragweed plant response rating ([2]; 125 g ai/ha): 20
- Plant response rating, Ragweed ([2]; 500 g ai/ha): 90
- Plant response rating, Ragweed [3, 16]: 20
- Ragweed plant response rating [3, 18]: 40
- Ryegrass, Italian plant response rating ([4]; 125 g ai/ha): 70
- Plant response rating, Ryegrass, Italian ([4]; 500 g ai/ha): 90
- Plant response rating, Pigweed [5, 16]: 20
- Pigweed plant response rating [5, 18]: 70
- Plant response rating, Wheat [6, 16]: 20
- Wheat plant response rating [6, 18]: 70
- Plant response rating, Blackgrass [7, 16]: 0
- Blackgrass plant response rating [7, 18]: 20
- Plant response rating, Kochia (kochia (Bassia scoparia) [8]; [16]): 60
- Kochia plant response rating (kochia (Bassia scoparia) [8]; [18]): 80
- Plant response rating, Barnyardgrass [9, 16]: 30
- Barnyardgrass plant response rating [9, 18]: 40
- Pigweed plant response rating ([10]; 125 g ai/ha): 70
- Plant response rating, Pigweed ([10]; 500 g ai/ha): 90
- Foxtail, Giant plant response rating ([11]; 125 g ai/ha): 60
- Plant response rating, Foxtail, Giant ([11]; 500 g ai/ha): 100
- Plant response rating, Foxtail, Giant [12, 16]: 20
- Foxtail, Giant plant response rating [12, 18]: 90
- Plant response rating, Ryegrass, Italian [13, 16]: 50
- Ryegrass, Italian plant response rating [13, 18]: 60
- Plant response rating, Galium [14, 16]: 90
- Galium plant response rating [14, 18]: 90
- Barnyardgrass plant response rating ([15]; 125 g ai/ha): 0
- Plant response rating, Barnyardgrass ([15]; 500 g ai/ha): 100

SMILES: Cc1cc(Cl)c(C(=O)N2CCCCC2)cc1NS(=O)(=O)C(F)(F)F [Compound 252]
- Plant response rating, Corn (corn (Zea mays); 125 g ai/ha): 10
- Plant response rating, Corn (corn (Zea mays); [19]): 0
- Plant response rating, Kochia (kochia (Bassia scoparia) [1]; [20]): 60
- Kochia plant response rating (kochia (Bassia scoparia) [1]; 500 g ai/ha): 80
- Plant response rating, Ragweed [2, 20]: 80
- Ragweed plant response rating ([2]; 500 g ai/ha): 90
- Plant response rating, Ragweed ([3]; 125 g ai/ha): 10
- Plant response rating, Ragweed [3, 19]: 90
- Plant response rating, Ryegrass, Italian [4, 20]: 60
- Ryegrass, Italian plant response rating ([4]; 500 g ai/ha): 100
- Plant response rating, Pigweed ([5]; 125 g ai/ha): 70
- Plant response rating, Pigweed [5, 19]: 80
- Plant response rating, Wheat ([6]; 125 g ai/ha): 0
- Plant response rating, Wheat [6, 19]: 40
- Plant response rating, Blackgrass ([7]; 125 g ai/ha): 0
- Plant response rating, Blackgrass [7, 19]: 0
- Plant response rating, Kochia (kochia (Bassia scoparia) [8]; 125 g ai/ha): 30
- Plant response rating, Kochia (kochia (Bassia scoparia) [8]; [19]): 60
- Plant response rating, Barnyardgrass ([9]; 125 g ai/ha): 0
- Plant response rating, Barnyardgrass [9, 19]: 30
- Plant response rating, Pigweed [10, 20]: 100
- Pigweed plant response rating ([10]; 500 g ai/ha): 100
- Plant response rating, Foxtail, Giant [11, 20]: 100
- Foxtail, Giant plant response rating ([11]; 500 g ai/ha): 100
- Plant response rating, Foxtail, Giant ([12]; 125 g ai/ha): 0
- Plant response rating, Foxtail, Giant [12, 19]: 40
- Plant response rating, Ryegrass, Italian ([13]; 125 g ai/ha): 30
- Plant response rating, Ryegrass, Italian [13, 19]: 70
- Plant response rating, Galium ([14]; 125 g ai/ha): 80
- Plant response rating, Galium [14, 19]: 80
- Plant response rating, Barnyardgrass [15, 20]: 40
- Barnyardgrass plant response rating ([15]; 500 g ai/ha): 100

— patent US20230278972A1, “SUBSTITUTED HALOALKYL SULFONANILIDE HERBICIDES” (FMC Corporation, priority 2020, published 2023)
